Assays:
HOP-62 = experiment: Growth inhibition of human HOP62 cells incubated for 48 hrs by sulforhodamine B assay; assay type: functional; details: HOP-62, 48 h
OVCAR-4 = experiment: Growth inhibition of human OVCAR4 cells incubated for 48 hrs by sulforhodamine B assay; assay type: functional; details: OVCAR-4, 48 h
SK-MEL-28 = experiment: Growth inhibition of human SK-MEL-28 cells incubated for 48 hrs by sulforhodamine B assay; assay type: functional; details: SK-MEL-28, 48 h
BT-549 = experiment: Growth inhibition of human BT549 cells incubated for 48 hrs by sulforhodamine B assay; assay type: functional; details: BT-549, 48 h
HCT-116 = experiment: cells; details: Homo sapiens, HCT-116, 72 h
NCI/ADR-RES = experiment: Growth inhibition of human NCI/ADR-RES cells incubated for 48 hrs by sulforhodamine B assay; assay type: functional
MCF7 = experiment: cells; details: Homo sapiens, MCF7, 72 h
COLO 205 = experiment: Growth inhibition of human COLO205 cells incubated for 48 hrs by sulforhodamine B assay; assay type: functional; details: COLO 205, 48 h
RXF 393 = experiment: Growth inhibition of human RXF393 cells incubated for 48 hrs by sulforhodamine B assay; assay type: functional; details: RXF 393, 48 h
[1] = target: T1, DNA topoisomerase 1 (Homo sapiens) (UniProt P11387); experiment: Inhibition of recombinant TOP1 (unknown origin) using 3'-[32P]-labeled 117 bp DNA oligonucleotide assessed as […] TOP1-mediated DNA cleavage incubated for 20 mins by PAGE analysis relative to 1 uM CPT
T1 sequence (whole entry): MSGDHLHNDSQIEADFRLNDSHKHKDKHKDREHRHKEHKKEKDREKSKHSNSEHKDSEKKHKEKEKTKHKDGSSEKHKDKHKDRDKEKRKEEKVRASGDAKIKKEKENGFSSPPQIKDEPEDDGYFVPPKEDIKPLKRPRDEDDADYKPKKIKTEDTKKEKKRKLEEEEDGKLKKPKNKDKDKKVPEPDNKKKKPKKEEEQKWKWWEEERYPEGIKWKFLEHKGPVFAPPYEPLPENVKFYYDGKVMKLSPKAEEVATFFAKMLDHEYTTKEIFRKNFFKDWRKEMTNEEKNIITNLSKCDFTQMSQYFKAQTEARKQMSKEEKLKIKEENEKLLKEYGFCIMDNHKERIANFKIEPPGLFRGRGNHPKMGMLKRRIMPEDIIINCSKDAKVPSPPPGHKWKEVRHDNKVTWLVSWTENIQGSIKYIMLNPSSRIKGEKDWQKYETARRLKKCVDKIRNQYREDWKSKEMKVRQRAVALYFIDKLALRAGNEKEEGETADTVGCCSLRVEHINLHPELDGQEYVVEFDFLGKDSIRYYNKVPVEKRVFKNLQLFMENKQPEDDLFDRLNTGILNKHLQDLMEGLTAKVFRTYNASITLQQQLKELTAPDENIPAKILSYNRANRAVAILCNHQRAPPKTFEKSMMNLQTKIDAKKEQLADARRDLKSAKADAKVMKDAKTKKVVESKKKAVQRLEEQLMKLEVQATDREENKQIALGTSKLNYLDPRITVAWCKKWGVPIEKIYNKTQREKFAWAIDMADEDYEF

CCRF-CEM = experiment: Growth inhibition of human CCRF-CEM cells incubated for 48 hrs by sulforhodamine B assay; assay type: functional
DU-145 = experiment: Growth inhibition of human DU145 cells incubated for 48 hrs by sulforhodamine B assay; assay type: functional; details: DU-145, 48 h
HT-29 = experiment: Growth inhibition of human HT-29 cells incubated for 48 hrs by sulforhodamine B assay; assay type: functional; details: HT-29, 48 h
[2] = test system: Panel NCI-60 (60 carcinoma cell lines); experiment: Growth inhibition of human NCI60 incubated for 48 hrs by sulforhodamine B assay; assay type: functional
MDA-MB-468 = experiment: Growth inhibition of human MDA-MB-468 cells incubated for 48 hrs by sulforhodamine B assay; assay type: functional; details: MDA-MB-468, 48 h
NCI-H226 = experiment: Growth inhibition of human NCI-H226 cells incubated for 48 hrs by sulforhodamine B assay; assay type: functional; details: NCI-H226, 48 h
M14 = experiment: Growth inhibition of human M14 cells incubated for 48 hrs by sulforhodamine B assay; assay type: functional; details: M14, 48 h
MDA-MB-231 = experiment: Growth inhibition of human MDA-MB-231 cells incubated for 48 hrs by sulforhodamine B assay; assay type: functional; details: MDA-MB-231, 48 h
ACHN = experiment: Growth inhibition of human ACHN cells incubated for 48 hrs by sulforhodamine B assay; assay type: functional
LOX IMVI = experiment: Growth inhibition of human LOXIMVI cells incubated for 48 hrs by sulforhodamine B assay; assay type: functional
HOP-92 = experiment: Growth inhibition of human HOP92 cells incubated for 48 hrs by sulforhodamine B assay; assay type: functional; details: HOP-92, 48 h
A549 = experiment: Growth inhibition of human A549/ATCC cells incubated for 48 hrs by sulforhodamine B assay; assay type: functional; details: A549, 48 h
KM12 = experiment: Growth inhibition of human KM12 cells incubated for 48 hrs by sulforhodamine B assay; assay type: functional; details: KM12, 48 h
OVCAR-3 = experiment: Growth inhibition of human OVCAR3 cells incubated for 48 hrs by sulforhodamine B assay; assay type: functional; details: OVCAR-3, 48 h
SR = experiment: Growth inhibition of human SR cells incubated for 48 hrs by sulforhodamine B assay; assay type: functional
Malme-3M = experiment: Growth inhibition of human MALME-3M cells incubated for 48 hrs by sulforhodamine B assay; assay type: functional
T47D = experiment: Growth inhibition of human T47D cells incubated for 48 hrs by sulforhodamine B assay; assay type: functional
SW-620 = experiment: Growth inhibition of human SW620 cells incubated for 48 hrs by sulforhodamine B assay; assay type: functional; details: SW-620, 48 h
IGROV-1 = experiment: Growth inhibition of human IGROV1 cells incubated for 48 hrs by sulforhodamine B assay; assay type: functional; details: IGROV-1, 48 h
EKVX = experiment: Growth inhibition of human EKVX cells incubated for 48 hrs by sulforhodamine B assay; assay type: functional
[3] = Oral bioavailability in Sprague-Dawley rat at 5 mg/kg measured for 0.083 to 4 hrs by LC-MS/MS analysis; assay type: ADME, organism-based; details: in vivo
[4] = Growth inhibition of human DU145/RC0.1 cells harboring TOP1 R364H mutant incubated for 72 hrs by MTT assay; assay type: functional; details: DU-145, 72 h
[5] = Half life in Sprague-Dawley rat at 1 mg/kg, iv measured for 0.083 to 4 hrs by LC-MS/MS analysis; assay type: ADME, organism-based; details: in vivo
[6] = AUC (0 to infinity) in Sprague-Dawley rat at 1 mg/kg, iv measured for 0.083 to 4 hrs by LC-MS/MS analysis; assay type: ADME, organism-based; set-up: dose 1 mg/kg, route intravenous, time infinity; details: in vivo
[7] = Acute toxicity in Kunming mouse assessed as mortality at 300 mg/kg, ip administrated as single dose measured within 5 days after drug administration; assay type: organism-based; details: in vivo, 120 h
[8] = Acute toxicity in Kunming mouse assessed as mortality at 153.6 to 240 mg/kg, ip administrated as single dose measured for 7 days post drug administration; assay type: organism-based; details: in vivo, 168 h

`COc1cc2c(=O)n(CCN)c3c4cc5c(cc4ccc3c2cc1OC)OCO5` showed a GI50 (HOP-62) of 399 nM, a GI50 (OVCAR-4) of 782 nM and a GI50 (SK-MEL-28) of 3050 nM. For the same compound, the GI50 (BT-549) was 918 nM, the GI50 (HCT-116) was 290 nM and the GI50 (NCI/ADR-RES) was 1010 nM. It also gave a GI50 (MCF7) of 100 nM, a GI50 (COLO 205) of 290 nM and a GI50 (RXF 393) of 929 nM. It also gave an inhibition [1] of 50 to 75%, a GI50 (CCRF-CEM) of 150 nM and a GI50 (DU-145) of 527 nM. The GI50 (HT-29) was 168 nM, the GI50 [2] was 525 nM and the GI50 (MDA-MB-468) was 157 nM. It also gave a GI50 (NCI-H226) of 1340 nM, a GI50 (M14) of 324 nM and a GI50 (MDA-MB-231) of 1280 nM. The GI50 (ACHN) was 366 nM, the GI50 (LOX IMVI) was 246 nM and the GI50 (HOP-92) was 3560 nM. For the same compound, the GI50 (A549) was 584 nM, the GI50 (KM12) was 1100 nM and the GI50 (OVCAR-3) was 826 nM. The GI50 (SR) was 90.7 nM, the GI50 (Malme-3M) was 613 nM and the GI50 (T47D) was 368 nM. For the same compound, the GI50 (SW-620) was 243 nM, the GI50 (IGROV-1) was 500 nM and the GI50 (EKVX) was 1360 nM.

Compound `CNCCn1c(=O)c2cc(OC)c(OC)cc2c2ccc3cc4c(cc3c21)OCO4` has a GI50 (HOP-62) of 43.9 nM, a GI50 (OVCAR-4) of 154 nM and a GI50 (SK-MEL-28) of 573 nM. The F [3] was 20.4%, the GI50 (BT-549) was 202 nM and the GI50 (HCT-116) was 36 nM. It also gave a GI50 (NCI/ADR-RES) of 165 nM, a GI50 [4] of 430 nM and a GI50 (MCF7) of 90 nM. The GI50 (COLO 205) was 60.5 nM, the GI50 (RXF 393) was 160 nM and the inhibition [1] was 75 to 95%. The GI50 (CCRF-CEM) was 20.1 nM, the GI50 (DU-145) was 130 nM and the GI50 (HT-29) was 50.8 nM. It also gave a GI50 [2] of 97.7 nM, a GI50 (MDA-MB-468) of 59.9 nM and a GI50 (NCI-H226) of 172 nM. The GI50 (M14) was 58.1 nM, the GI50 (MDA-MB-231) was 362 nM and the GI50 (ACHN) was 85.6 nM. The GI50 (LOX IMVI) was 38.9 nM, the GI50 (HOP-92) was 184 nM and the GI50 (A549) was 94.8 nM. It also gave a half-life [5] of 72.6 min, a GI50 (KM12) of 238 nM and a GI50 (OVCAR-3) of 166 nM. It also gave an AUC(0-inf) [6] of 49.5 ng·h/mL, a GI50 (SR) of 17.3 nM and a GI50 (Malme-3M) of 174 nM. For the same compound, the GI50 (T47D) was 75.7 nM, the GI50 (SW-620) was 65.8 nM and the Activity [7] was “Toxic”. For the same compound, the GI50 (IGROV-1) was 145 nM, the Activity [8] was “Toxic” and the GI50 (EKVX) was 202 nM.

— ChEMBL document CHEMBL4364246, “Synthesis and biological evaluation of 5-aminoethyl benzophenanthridone derivatives as DNA topoisomerase IB inhibitors” (Eur J Med Chem, 2019)
